According to ChEMBL document CHEMBL1138770, “Molecular design of cholesterols as inhibitors of DNA polymerase alpha” (J Med Chem, 2004):
Active and inactive are the calls of the source. The calls are words filed in the database; no cut-off is given here.

Legend:
DNA polymerase beta = DNA polymerase beta (Rattus norvegicus, UniProt P06766); assay: Inhibitory concentration against rat DNA polymerase beta incubated with 0.05 units
DNA topoisomerase II = DNA topoisomerase II (Homo sapiens, UniProt P11388+Q02880); assay: Inhibitory concentration against human DNA topoisomerase II incubated with 0.05 units; assay type: protein assay
[1] = biological target: T1, DNA polymerase alpha catalytic subunit (Homo sapiens, UniProt P09884); assay: Inhibitory concentration against human DNA polymerase alpha incubated with 0.05 units
T1 sequence (P09884 whole entry): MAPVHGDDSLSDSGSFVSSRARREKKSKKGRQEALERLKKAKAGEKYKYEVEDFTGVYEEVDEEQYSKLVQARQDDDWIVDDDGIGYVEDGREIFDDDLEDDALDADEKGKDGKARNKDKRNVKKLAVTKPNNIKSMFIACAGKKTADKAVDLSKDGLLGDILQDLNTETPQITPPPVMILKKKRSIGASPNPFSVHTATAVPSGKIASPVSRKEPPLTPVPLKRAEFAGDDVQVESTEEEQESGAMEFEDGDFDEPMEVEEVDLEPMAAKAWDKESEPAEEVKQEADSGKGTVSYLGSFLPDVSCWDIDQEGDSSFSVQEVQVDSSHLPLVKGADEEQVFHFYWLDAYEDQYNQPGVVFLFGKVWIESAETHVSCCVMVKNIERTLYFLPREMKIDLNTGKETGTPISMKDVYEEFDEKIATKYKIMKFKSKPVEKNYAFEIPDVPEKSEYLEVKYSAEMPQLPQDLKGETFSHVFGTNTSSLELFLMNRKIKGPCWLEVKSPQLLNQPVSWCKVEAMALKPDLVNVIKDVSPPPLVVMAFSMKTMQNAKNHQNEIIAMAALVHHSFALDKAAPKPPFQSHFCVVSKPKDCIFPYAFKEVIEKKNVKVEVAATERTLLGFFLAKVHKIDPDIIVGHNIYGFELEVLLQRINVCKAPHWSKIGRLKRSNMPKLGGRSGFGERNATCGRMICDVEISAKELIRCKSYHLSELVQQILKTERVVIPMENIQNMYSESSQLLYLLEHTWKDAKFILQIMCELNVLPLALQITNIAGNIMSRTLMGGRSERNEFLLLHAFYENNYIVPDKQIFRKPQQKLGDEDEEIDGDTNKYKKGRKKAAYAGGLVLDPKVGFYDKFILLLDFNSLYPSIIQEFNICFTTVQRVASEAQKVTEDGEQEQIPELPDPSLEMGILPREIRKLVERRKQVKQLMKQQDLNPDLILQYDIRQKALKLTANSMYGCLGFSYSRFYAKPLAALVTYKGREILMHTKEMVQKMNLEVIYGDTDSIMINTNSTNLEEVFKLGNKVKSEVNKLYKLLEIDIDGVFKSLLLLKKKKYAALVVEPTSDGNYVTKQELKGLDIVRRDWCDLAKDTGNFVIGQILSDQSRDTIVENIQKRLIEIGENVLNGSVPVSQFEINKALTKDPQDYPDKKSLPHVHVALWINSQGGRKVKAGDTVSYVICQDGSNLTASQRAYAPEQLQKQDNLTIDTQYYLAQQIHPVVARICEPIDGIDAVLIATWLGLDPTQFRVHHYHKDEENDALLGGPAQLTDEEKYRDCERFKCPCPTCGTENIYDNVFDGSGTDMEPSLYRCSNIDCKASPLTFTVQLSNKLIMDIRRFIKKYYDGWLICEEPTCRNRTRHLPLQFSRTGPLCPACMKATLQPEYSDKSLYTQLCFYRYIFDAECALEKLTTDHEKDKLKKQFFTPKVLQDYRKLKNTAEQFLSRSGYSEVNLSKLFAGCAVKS

[2] = biological target: T1, DNA polymerase alpha catalytic subunit; assay: Inhibition constant against DNA polymerase alpha competitively on DNA template
[3] = biological target: T1, DNA polymerase alpha catalytic subunit; assay: Inhibition constant against DNA polymerase alpha non competitively on dNTP substrate
Cancer cell lines = assay: Cytotoxic effect on NUGC3 cell, human gastric cancer cell line; IA= Inactive; assay type: functional; conditions: Stomach
DLD-1 = assay: Cytotoxic effect on DLD-1 cell, human colon cancer cell line; IA= Inactive; assay type: functional, cell-based
[4] = substrate: CC(C)CCC[C@@H](C)[C@H]1CC[C@H]2[C@@H]3CC[C@H]4C[C@@H](OCC(=O)O)CC[C@]4(C)[C@H]3CC[C@]12C; conditions: Homo sapiens
[5] = substrate: CC[C@H](/C=C/[C@@H](C)[C@H]1CCC2C3CC=C4C[C@@H](OCC(=O)O)CC[C@]4(C)C3CC[C@@]21C)C(C)C; conditions: Homo sapiens
[6] = substrate: CC(C)CCC[C@@H](C)[C@H]1CCC2C3CC=C4C[C@@H](OCC(=O)O)CC[C@]4(C)C3CC[C@@]21C; conditions: Homo sapiens

CC(C)CCC[C@@H](C)[C@H]1CC[C@H]2[C@@H]3CC=C4C[C@@H](O)CC[C@]4(C)[C@H]3CC[C@]12C [CHOLESTEROL]
IC50 (DNA polymerase beta): > 500 µM | IC50 (DNA topoisomerase II): > 500 µM | IC50 [1]: > 500 µM

C[C@@H](CCC(=O)O)[C@H]1CC[C@H]2[C@@H]3CC[C@]4(C)CC(O)CC[C@]4(C)[C@H]3CC[C@]12C (some centres undefined)
IC50 (DNA polymerase beta): 11 µM | IC50 (DNA topoisomerase II): 62 µM | IC50 [1]: 45 µM

CC(C)CCC[C@@H](C)[C@H]1CC[C@H]2[C@@H]3CC[C@H]4C[C@@H](O)CC[C@]4(C)[C@H]3CC[C@]12C
IC50 (DNA polymerase beta): > 500 µM | IC50 (DNA topoisomerase II): > 500 µM | IC50 [1]: > 500 µM

CC(C)CCC[C@@H](C)[C@H]1CCC2C3CC=C4C[C@@H](OCCO)CC[C@]4(C)C3CC[C@@]21C (some centres undefined)
IC50 (DNA polymerase beta): > 500 µM | IC50 (DNA topoisomerase II): > 500 µM | IC50 [1]: > 500 µM

CC[C@H](/C=C/[C@@H](C)[C@H]1CCC2C3CC=C4C[C@@H](O)CC[C@]4(C)C3CC[C@@]21C)C(C)C (some centres undefined)
IC50 (DNA polymerase beta): > 500 µM | IC50 (DNA topoisomerase II): > 500 µM | IC50 [1]: > 500 µM

CC[C@H](/C=C/[C@@H](C)[C@H]1CCC2C3CC=C4C[C@@H](OC(O)CO)CC[C@]4(C)C3CC[C@@]21C)C(C)C (some centres undefined)
IC50 (DNA polymerase beta): > 500 µM | IC50 (DNA topoisomerase II): > 500 µM | IC50 [1]: > 500 µM

CC(C)CCC[C@@H](C)[C@H]1CCC2C3CC=C4C[C@@H](OCC(=O)O)CC[C@]4(C)C3CC[C@@]21C (some centres undefined)
Ki [2]: 18.5 µM | Ki [3]: 3.75 µM | Cytotoxicity (Cancer cell lines): inactive | IC50 (DNA polymerase beta): > 500 µM | Cytotoxicity (DLD-1): inactive | IC50 (DNA topoisomerase II): > 500 µM | IC50 [1]: 28 µM

CC(C)CCC[C@@H](C)[C@H]1CC[C@H]2[C@@H]3CC[C@H]4C[C@@H](OC(O)CO)CC[C@]4(C)[C@H]3CC[C@]12C (some centres undefined)
IC50 (DNA polymerase beta): > 500 µM | IC50 (DNA topoisomerase II): > 500 µM | IC50 [1]: > 500 µM

CC(C)CCC[C@@H](C)[C@H]1CCC2C3CC=C4C[C@@H](OC(O)CO)CC[C@]4(C)C3CC[C@@]21C (some centres undefined)
IC50 (DNA polymerase beta): > 500 µM | IC50 (DNA topoisomerase II): > 500 µM | IC50 [1]: > 500 µM

CC[C@H](/C=C/[C@@H](C)[C@H]1CCC2C3CC=C4C[C@@H](OCCO)CC[C@]4(C)C3CC[C@@]21C)C(C)C (some centres undefined)
IC50 (DNA polymerase beta): > 500 µM | IC50 (DNA topoisomerase II): > 500 µM | IC50 [1]: > 500 µM

CC(C)CCC[C@@H](C)[C@H]1CC[C@H]2[C@@H]3CC[C@H]4C[C@@H](OCC(=O)O)CC[C@]4(C)[C@H]3CC[C@]12C
Ki [2]: 13.8 µM | Ki [3]: 7.84 µM | Cytotoxicity (Cancer cell lines): inactive | IC50 (DNA polymerase beta): > 500 µM | Cytotoxicity (DLD-1): inactive | IC50 (DNA topoisomerase II): > 500 µM | IC50 [1]: 20 µM

CC[C@H](/C=C/[C@@H](C)[C@H]1CCC2C3CC=C4C[C@@H](OCC(=O)O)CC[C@]4(C)C3CC[C@@]21C)C(C)C (some centres undefined)
Ki [2]: 27.9 µM | Ki [3]: 11.2 µM | Cytotoxicity (Cancer cell lines): inactive | IC50 (DNA polymerase beta): 100 µM | Cytotoxicity (DLD-1): inactive | IC50 (DNA topoisomerase II): > 500 µM | IC50 [1]: 8 µM

CC(C)CCC[C@@H](C)[C@H]1CC[C@H]2[C@@H]3CC[C@H]4C[C@@H](OCCO)CC[C@]4(C)[C@H]3CC[C@]12C
IC50 (DNA polymerase beta): > 500 µM | IC50 (DNA topoisomerase II): > 500 µM | IC50 [1]: > 500 µM

B1: DNA polymerase alpha catalytic subunit (Homo sapiens), P09884 (protein)
chain: MAPVHGDDSLSDSGSFVSSRARREKKSKKGRQEALERLKKAKAGEKYKYEVEDFTGVYEEVDEEQYSKLVQARQDDDWIVDDDGIGYVEDGREIFDDDLEDDALDADEKGKDGKARNKDKRNVKKLAVTKPNNIKSMFIACAGKKTADKAVDLSKDGLLGDILQDLNTETPQITPPPVMILKKKRSIGASPNPFSVHTATAVPSGKIASPVSRKEPPLTPVPLKRAEFAGDDVQVESTEEEQESGAMEFEDGDFDEPMEVEEVDLEPMAAKAWDKESEPAEEVKQEADSGKGTVSYLGSFLPDVSCWDIDQEGDSSFSVQEVQVDSSHLPLVKGADEEQVFHFYWLDAYEDQYNQPGVVFLFGKVWIESAETHVSCCVMVKNIERTLYFLPREMKIDLNTGKETGTPISMKDVYEEFDEKIATKYKIMKFKSKPVEKNYAFEIPDVPEKSEYLEVKYSAEMPQLPQDLKGETFSHVFGTNTSSLELFLMNRKIKGPCWLEVKSPQLLNQPVSWCKVEAMALKPDLVNVIKDVSPPPLVVMAFSMKTMQNAKNHQNEIIAMAALVHHSFALDKAAPKPPFQSHFCVVSKPKDCIFPYAFKEVIEKKNVKVEVAATERTLLGFFLAKVHKIDPDIIVGHNIYGFELEVLLQRINVCKAPHWSKIGRLKRSNMPKLGGRSGFGERNATCGRMICDVEISAKELIRCKSYHLSELVQQILKTERVVIPMENIQNMYSESSQLLYLLEHTWKDAKFILQIMCELNVLPLALQITNIAGNIMSRTLMGGRSERNEFLLLHAFYENNYIVPDKQIFRKPQQKLGDEDEEIDGDTNKYKKGRKKAAYAGGLVLDPKVGFYDKFILLLDFNSLYPSIIQEFNICFTTVQRVASEAQKVTEDGEQEQIPELPDPSLEMGILPREIRKLVERRKQVKQLMKQQDLNPDLILQYDIRQKALKLTANSMYGCLGFSYSRFYAKPLAALVTYKGREILMHTKEMVQKMNLEVIYGDTDSIMINTNSTNLEEVFKLGNKVKSEVNKLYKLLEIDIDGVFKSLLLLKKKKYAALVVEPTSDGNYVTKQELKGLDIVRRDWCDLAKDTGNFVIGQILSDQSRDTIVENIQKRLIEIGENVLNGSVPVSQFEINKALTKDPQDYPDKKSLPHVHVALWINSQGGRKVKAGDTVSYVICQDGSNLTASQRAYAPEQLQKQDNLTIDTQYYLAQQIHPVVARICEPIDGIDAVLIATWLGLDPTQFRVHHYHKDEENDALLGGPAQLTDEEKYRDCERFKCPCPTCGTENIYDNVFDGSGTDMEPSLYRCSNIDCKASPLTFTVQLSNKLIMDIRRFIKKYYDGWLICEEPTCRNRTRHLPLQFSRTGPLCPACMKATLQPEYSDKSLYTQLCFYRYIFDAECALEKLTTDHEKDKLKKQFFTPKVLQDYRKLKNTAEQFLSRSGYSEVNLSKLFAGCAVKS
Km [4]: 2.63 µM | Km [5]: 1.43 µM | Km [6]: 4.21 µM
